The results in this text go back to publication PMC4650734, “FV-162 is a novel, orally bioavailable, irreversible proteasome inhibitor with improved pharmacokinetics displaying preclinical efficacy with continuous daily dosing” (Cell Death & Disease, 2015).

Data set [1] relates to MM.1S human myeloma cells. The data set can be described thus: Subcutaneous MM.1S myeloma xenograft model. Format: in vivo, NOD/SCID mice. Conditions: for tumor burden compared with vehicle control: P<0.01 by day 24, P<0.001 after 27 days. The procedure: Human MM.1S myeloma cells (5 × 10^6) were injected subcutaneously into 6–8-week-old female NOD/SCID mice (10 mice per group). When tumors were palpable, mice were administered vehicle by oral gavage (5% DMSO, 20% Cremophor; once daily × 3 weeks), carfilzomib intravenously (5 mg/kg, once daily on days 1 and 2 of each week × 3 weeks), ONX-0912 by oral gavage (30 mg/kg, once daily on days 1 and 2 of each week × 3 weeks), or FV-162 by oral gavage (30 mg/kg or 100 mg/kg, once daily × 3 weeks). Over time, tumor volume (tumor length × width^2 × 0.5236) was measured with calipers (Control Company, Friendswood, TX, USA), and mouse body weight was monitored.

In data set [2] the test system is CD138- normal hematopoietic cells. The data set can be described thus: Annexin V flow cytometry viability of primary bone marrow mononuclear cells, normal fraction. The format is cell-based, human. As to conditions: 48 h; for sensitivity of CD138- normal hematopoietic cells: concentrations ⩽0.1 μM for FV-162, similar concentrations for ONX-0912. The procedure: Human multiple myeloma cell lines 8226, H929, JJN3, KMH11, KMS11, KMS18, LP1, MM.1 S, OPM2, and U266 were grown in Iscove's modified Dulbecco's medium (IMDM). Cell lines were authenticated with short tandem repeat method in September 2011. In addition, cell lines were continually monitored by morphological inspection. Primary mononuclear cells were isolated from peripheral blood or bone marrow samples from multiple myeloma patients at the Princess Margaret Cancer Centre (Toronto, ON, Canada) by Ficoll density gradient centrifugation and cultured in IMDM. All cell culture media were obtained from the Ontario Cancer Institute Tissue Culture Media Facility (Toronto, ON, Canada) and were supplemented with 10% fetal calf serum, 100 μg/ml penicillin, and 100 μg/ml streptomycin (Hyclone, Logan, UT, USA). […] Cellular viability was primarily assessed by MTS assay according to the manufacturer's instructions (Promega, Madison, WI, USA). Ten thousand cells per well were seeded in triplicate in tissue culture-treated 96-well plates. Two hours after seeding, cells were treated with proteasome inhibitors for 72 h (0.01–10 μM) or DMSO vehicle control. Cell viability was independently confirmed by reading the optical density at 490 nm and by exclusion of trypan blue stain (Invitrogen, Burlington, ON, Canada). Viability of primary mononuclear cells was determined by Annexin V–fluorescein isothiocyanate and propidium iodide co-staining (Biovision Research Products, Mountain View, CA, USA) using flow cytometry according to the manufacturer's instructions after 48 h of treatment with inhibitors or vehicle control.
In general terms: Flow cytometry measures light scatter and fluorescence of single cells or particles in a stream.

Data set [3] can be described thus: Dose tolerance studies / MTD in mice. As to conditions: NOD/SCID, mouse, in vivo, po. The procedure: NOD/SCID mice were administered FV-162 (30 mg/kg daily, 7 days/week) in a 5% DMSO, 20% Cremophor vehicle by oral gavage or ONX-0912 (30 mg/kg daily, 7 days/week) in a 5% DMSO, 20% Cremophor vehicle by oral gavage for a week. Mice were monitored for changes in body weight, behavior, and physical appearance.

For the next data set, the system named is CT-L proteasome activity. The data set can be described thus: CT-L proteasome activity in RBCs of treated mice. Format: in vivo, mouse. Conditions: for duration of inhibition of proteasome activity in isolated RBCs: after single oral treatment of mice; for inhibition of CT-L activity in RBCs compared with ONX-0912 (30 mg/kg): up to 24 h postdose. The procedure:
Cells were harvested by centrifugation at 1200 r.p.m. at room temperature. Cell pellets were washed with PBS and lysed with assay lysis buffer (50 mM HEPES (2-[4-(2-hydroxyethyl) piperazin-1-yl]ethanesulfonic acid)), pH 7.5; 150 mM NaCl; 1% Triton X-100; 2 mM ATP). Cell lysates were incubated on ice for 30 min, mixed by vortex every 5 min, and centrifuged at 12 000 × g for 10 min. Supernatants were transferred to a 96-well plate in triplicate. For each assay, 10 μg of total protein were incubated for 1 h at 37 °C with increasing concentrations (0.001–10 μM) of test compound or vehicle control diluted in assay buffer (50 mM Tris-HCl (tris(hydroxymethyl)aminomethane-HCl), pH 7.5; 150 mM NaCl). After incubation, a specific fluorogenic proteasome substrate was added to each assay reaction (40 μM in a total volume of 100 μl). N-Succinyl-Leu-Leu-Val-Tyr-7-amino-4-methylcoumarin (Suc-Leu-Leu-Val-Tyr-AMC) was used for measuring CT-L activity, t-butoxycarbonyl- Leu-Arg-Arg-7-amino-4-methylcoumarin (Boc-Leu-Arg-Arg-AMC) for T-L activity, and benzyloxycarbonyl-L-leucyl-L-leucyl-L-glutamyl-7-amino-4-methylcoumarin (Z-Leu-Leu-Glu-AMC) for C-L activity. The excitation wavelength was 360 nm and the fluorescence emission of free AMC released during the enzymatic reaction was detected at 460 nm on a SpectraMax M5 fluorescent spectrophotometric plate reader (Molecular Devices, Sunnyvale, CA, USA). AMC release rate was measured at 37 °C in a kinetic mode, recording every 5 min for 30 min.
Five-to-six-week-old male NOD/SCID mice were administered vehicle (5% DMSO, 20% Cremophor) or proteasome inhibitors either intravenously or by oral gavage (3 mice per group), and 20–50 μl of venous blood were collected from each mouse over 24 h. Blood samples were mixed with heparin (APP Pharmaceuticals; Schaumburg, IL, USA) in 0.5-ml tubes in accordance with the manufacturer's instructions. After centrifugal separation at 3000 × g for 10 min, RBCs in the bottom layer were transferred into a new tube and stored at −70 °C until use. RBCs were lysed with assay lysis buffer and incubated on ice for 30 min, mixing by vortex every 5 min, and centrifuged at 12 000 × g for 10 min. Supernatants were transferred to a 96-well plate and proteasome activity was measured as described in 'Cell lysates' section.

The nature of data set [4]: Pharmacokinetic study in Sprague-Dawley rats. Format: in vivo. Conditions: rat; for bioavailability: 40 mg/kg p.o. vs 5 mg/kg i.v.
The mark [5] stands for this setting: male, Sprague-Dawley, plasma, iv, 5 mg/kg i.v.
Setting [6] is: male, Sprague-Dawley, plasma, iv, 5 mg/kg i.v., read-out: AUC (converted).
[7] abbreviates: male, Sprague-Dawley, plasma, iv, 5 mg/kg i.v., read-out: Cmax.
[8] abbreviates: male, Sprague-Dawley, plasma, po, 40 mg/kg p.o.
[9] abbreviates: male, Sprague-Dawley, plasma, po.
Setting [10] is: male, Sprague-Dawley, plasma, 40 mg/kg oral, read-out: AUC (as printed in text) (converted).
Where [11] appears, read: male, Sprague-Dawley, plasma, 40 mg/kg oral, read-out: Cmax (as printed in text).

SMILES strings stand for the structures. Like-named read-outs stand apart in the source and are kept apart here.

In general, Tmax refers to the time from dosing to the highest level. In general, Vd refers to a proportionality between amount in the body and measured concentration, not a real space. A lower Vd goes with little distribution into tissue. One may read the half-life as the time needed for the level to fall by half in the phase considered. Read a high half-life as slow loss. The term AUC denotes the area under the concentration-time curve, a measure of exposure. One may read the Cmax as the maximum level reached in the sampled fluid or tissue. By bioavailability is commonly meant the share of a dose that reaches the circulation, judged against a reference dose that is usually intravenous. Low values mean little systemic uptake, high ones much systemic uptake. Regarding `Cc1ncc(C(=O)N[C@@H](COC(F)F)C(=O)N[C@@H](COC(F)F)C(=O)N[C@@H](Cc2ccccc2)C(=O)[C@@]2(C)CO2)s1` [FV-162], the “tumor burden compared with vehicle control” value in data set [1] (30 mg/kg daily by oral gavage) and in data set [1] (100 mg/kg daily by oral gavage) was “significantly reduced tumor burden” throughout. In addition, the “tumor growth reduction compared with ONX-0912 (30 mg/kg)” value in data set [1] (100 mg/kg daily, by 27 days after inoculation, P<0.05) was “greater reduction in tumor growth”. The “CD138- cells to which compound was toxic” value in data set [2] (0.5 μM) is recorded as 50%. Further, in data set [2], the “sensitivity of CD138- normal hematopoietic cells” value is “largely insensitive”. For the same compound, in data set [3], the MTD came to 200 mg/kg. Also, the “duration of inhibition of proteasome activity in isolated RBCs” value with CT-L proteasome activity is given as “sustained for up to 24 h”. The “inhibition of CT-L activity in RBCs compared with ONX-0912 (30 mg/kg)” value is on record as “less inhibition of the CT-L activity than ONX-0912” in the data set on CT-L proteasome activity (single oral dose 30 mg/kg) and “performed similarly to almost the MTD of ONX-0912” in the data set on CT-L proteasome activity (single oral dose 100 mg/kg (half the MTD)). For the same compound, the Tmax in data set [4] (setting [5]) is 5 min; in data set [4] (setting [8]) it was 15 min. In data set [4] (setting [5]), this compound displayed a Vd of 20 L/kg. The compound further returned a half-life in data set [4] (setting [5]) of 68 min. In addition, the AUC in data set [4] (setting [6]) is 403 ng·h/mL; in data set [4] (setting [10]) it was 451 ng·h/mL; in data set [4] (40 mg/kg p.o.), 27 073 min × ng/ml. The Cmax in data set [4] (setting [7]) was found to be 392 ng/mL; in data set [4] (setting [11]) it was 615 ng/mL. This compound also displayed a bioavailability in data set [4] (setting [9]) of 14%.

By clearance is commonly meant the volume of plasma or blood freed of the substance per unit of time. High values mean a high capacity for elimination, low ones a low capacity for elimination. As for `COC[C@H](NC(=O)c1cnc(C)s1)C(=O)N[C@@H](COC)C(=O)N[C@@H](Cc1ccccc1)C(=O)[C@@]1(C)CO1` [ONX-0912, reference compound], the “tumor burden compared with vehicle control” value in data set [1] (30 mg/kg twice weekly by oral gavage) is listed as “significantly reduced tumor burden”. The “sensitivity of CD138- normal hematopoietic cells” value in data set [2] was “no adverse effects”. For the same compound, in data set [3], the MTD worked out at 40 mg/kg. In addition, the “duration of inhibition of proteasome activity in isolated RBCs” value with CT-L proteasome activity is “sustained for up to 24 h”. Besides, the Tmax in data set [4] (setting [5]) and in data set [4] (setting [8]) was 5 min each time. In data set [4] (setting [5]), this compound registered a Vd of 4 L/kg. In data set [4] (setting [5]), this compound yielded a clearance of 273 mL/min/kg. Also, the half-life in data set [4] (setting [5]) came out at 10 min. The AUC in data set [4] (setting [6]) was 301 ng·h/mL; in data set [4] (setting [10]), 377 ng·h/mL; in data set [4] (40 mg/kg p.o.), 22 627 min × ng/ml. For the same compound, the Cmax in data set [4] (setting [7]) was determined as 1090 ng/mL; in data set [4] (setting [11]), 1270 ng/mL. The bioavailability in data set [4] (setting [9]) came to 16%.
